{
  "source": "patent US7071349B2",
  "about": "“Purification method of N-(1(S)-ethoxycarbonyl-3-phenylpropyl)-L-alanine” (Kanaka Corporation, priority 2001, dated 2006)",
  "test": "Solubility of the pure product in mixed solvents of ethanol and water",
  "assay_type": "physicochemical",
  "protocol": "One-hundred milliliters each of mixed solvents of ethanol and water in predetermined volume ratios were respectively adjusted to predetermined temperatures and each […] of N-(1(S)-ethoxycarbonyl-3-phenylpropyl)-L-alanine was no longer dissolved. After 30 minutes of standing, the supernatant was taken and the solubility (weight %) was determined according to the weight after concentration to dryness/the weight of the solution.",
  "data": [
    {"smiles": "CCOC(=O)[C@H](CCc1ccccc1)N[C@@H](C)C(=O)O", "note": "[N-(1(S)-ethoxycarbonyl-3-phenylpropyl)-L-alanine]", "values": [
      {"measurement": "Solubility", "setting": "ethanol/water volume ratio 0.43, 10° C.", "result": 1, "unit": "weight %"},
      {"measurement": "Solubility", "setting": "ethanol/water volume ratio 0.43, 65° C.", "result": 9, "unit": "weight %"},
      {"measurement": "Solubility", "setting": "ethanol/water volume ratio 1.00, 10° C.", "result": 2, "unit": "weight %"},
      {"measurement": "Solubility", "setting": "ethanol/water volume ratio 1.00, 20° C.", "result": 3, "unit": "weight %"},
      {"measurement": "Solubility", "setting": "ethanol/water volume ratio 1.00, 65° C.", "result": 21, "unit": "weight %"},
      {"measurement": "Solubility", "setting": "ethanol/water volume ratio 2.33, 10° C.", "result": 3, "unit": "weight %"},
      {"measurement": "Solubility", "setting": "ethanol/water volume ratio 2.33, 20° C.", "result": 4, "unit": "weight %"},
      {"measurement": "Solubility", "setting": "ethanol/water volume ratio 2.33, 65° C.", "result": 42, "unit": "weight %"},
      {"measurement": "Solubility", "setting": "ethanol/water volume ratio 4.00, 10° C.", "result": 4, "unit": "weight %"},
      {"measurement": "Solubility", "setting": "ethanol/water volume ratio 4.00, 20° C.", "result": 5, "unit": "weight %"},
      {"measurement": "Solubility", "setting": "ethanol/water volume ratio 4.00, 65° C.", "result": 45, "unit": "weight %"},
      {"measurement": "Solubility", "setting": "ethanol/water volume ratio 5.67, 10° C.", "result": 3, "unit": "weight %"},
      {"measurement": "Solubility", "setting": "ethanol/water volume ratio 5.67, 20° C.", "result": 5, "unit": "weight %"},
      {"measurement": "Solubility", "setting": "ethanol/water volume ratio 5.67, 65° C.", "result": 42, "unit": "weight %"},
      {"measurement": "Solubility", "setting": "ethanol/water volume ratio 15.7, 10° C.", "result": 3, "unit": "weight %"},
      {"measurement": "Solubility", "setting": "ethanol/water volume ratio 15.7, 20° C.", "result": 4, "unit": "weight %"},
      {"measurement": "Solubility", "setting": "ethanol/water volume ratio 15.7, 65° C.", "result": 26, "unit": "weight %"},
      {"measurement": "Solubility", "setting": "ethanol/water volume ratio 249, 10° C.", "result": 2, "unit": "weight %"},
      {"measurement": "Solubility", "setting": "ethanol/water volume ratio 249, 20° C.", "result": 3, "unit": "weight %"},
      {"measurement": "Solubility", "setting": "ethanol/water volume ratio 249, 65° C.", "result": 17, "unit": "weight %"}
    ]}
  ]
}
